Reference: patent US8278461B2, “Stable amorphous form of carvedilol dihydrogen phosphate with stabilizer” (Lupin Limited, priority 2007, dated 2012)
Where two headings read alike, the source gives them in different places.

Assays:
[1] = Glass transition temperature of the amorphous form; type: physicochemical
Experimental: We have filed an Indian patent application 292/KOL/2007 dated 27 Feb. 2007 in Indian Patent Office on amorphous form of carvedilol dihydrogen phosphate and the process for its preparation. The amorphous form obtained by the process described in this application has glass transition temperature below 60° C. The amorphous solids in general having low glass transition temperature not only create complications during formulation but also has stability related problems on storage. The glass transition temperature is the temperature, below which the physical properties of amorphous materials vary in a manner similar to those of a crystalline phase (glassy state), and above which amorphous materials behave like liquids (rubbery state). A materials glass transition temperature is the temperature below which molecules have little relative mobility. Thus, there exist a need to develop stable amorphous form of carvedilol dihydrogen phosphate which have improved characteristics. […] The amorphous carvedilol obtained without stabiliser having glass transition temperature 55-56° C. while the stable amorphous form of the present invention has glass transition temperature in the range between 76 to 185° C. The phosphorous content of the stable amorphous form of the present invention is between 18-20% on anhydrous basis.

[2] = amorphous form obtained by the process of Indian application 292/KOL/2007; cited from earlier work

glass transition temperature [1]: 55-56 °C
SMILES: COc1ccccc1OCCNCC(O)COc1cccc2[nH]c3ccccc3c12.O=P(O)(O)O (centres unmarked) [carvedilol dihydrogen phosphate]
glass transition temperature [2]: below 60 °C
